Experiments:
RIN-m cells = assay: Cell viability (CellTiter Blue), compound alone without IAPP; format: cell-based, Rat; settings: concentrations used for cell viability assays, no IAPP
Protocol: (§1) For cell toxicity assays, Rat insulinoma cells (RIN-m) were as they are considered to be a good model for pancreatic β-cells (see Huang, C.; Lin, C.; Haataja, L., Gurlo, T., Butler, A. E., Rizza, R. A., and Butler, P. C. Diabetes, 2007, 56, 2016-2027). Rat insulinoma RIN-m cells (ATCC, Manassas, Va.) were cultured in RPMI medium supplemented with 10% fetal bovine serum, 1% penicillin/streptomycin, […] sodium pyruvate, and […] β-mercaptoethanol (Life Technologies, Carlsbad, Calif.) at 37° C. and 5% CO2. Upon reaching ˜95% confluence, cells were washed with phosphate buffered saline (VWR, Radnor, Pa.), split using 0.25% Trypsin-EDTA (Life Technologies), and plated in clear 96-well plates (Corning, Glenview, Ill.) for cell viability assays.
(§2) Cell viability was measured using the CellTiter Blue (CTB, Promega, Madison, Wis.) fluorescence-based assay. Cells were plated at a density of 20,000 cells per well in 96 well plates. After 48 h of incubation at 37° C. and 5% CO2, cells were washed with 100 μL of PBS. […] Fluorescence of the dye was measured on a FlexStation3 microplate reader (Molecular Devices, Sunnyvale, Calif.). […] Percent viability was calculated as per the following equation: % Viability=100*[(<S>−<P>)/(<N>−<P>)]
(§3) Where <S>, <P>, and <N> are the average fluorescence intensities of the sample, positive control, and negative control, respectively.

[1] = target: T1, IAPP-induced lipid membrane leakage (Homo sapiens, UniProt P10997); assay: Fluorescein-based liposome leakage assay; format: biochemical
T1 construct: IAPP is a 37 residue neuropancreatic hormone peptide; purchased Anaspec (Fremont, Calif.)
T1 sequence (P10997 34-70 limits assumed): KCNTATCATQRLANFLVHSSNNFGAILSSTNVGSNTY
Description: Colocalization of IAPP at the mitochondrial membrane and the subsequent membrane poration is considered to be one of the potential contributors to β-cell toxicity. Therefore, a liposome leakage assay could serve as a surrogate marker for IAPP induced cytotoxicity (see Last, N. B.; Miranker, A. D. Proc. Natl. Acad. Sci. U.S.A. 2013, 110, 6382-6387; and Last, N. B.; Rhoades, E.; Miranker, A. D. Proc. Natl. Acad. Sci. U.S.A. 2011, 108, 9460-9465). A previously reported fluorescein-based liposome leakage assay was employed to test the effect of ADH-101 on membrane associated α-helical intermediates of IAPP. Briefly, fluorescein-dextran conjugate (MW=70 kDa) was encapsulated in unilamaller extruded lipid vesicles (DOPG:DOPC, 3:7, d=100 nm). The size of fluorescein-dextran conjugate allows it to stay inside the lipid vesicles during IAPP mediated membrane poration. The leakage kinetics was probed by the quenching of fluorescence using a fluorescent quencher, DPX (p-xylene-bis-pyridinium […]). The kinetic profiles of leakage are single exponential with a decrease in fluorescence as a function of time. The leakage reaction was initiated by introducing 200 μM liposome into a solution of 4 μM IAPP and 6 mM of DPX. The introduction of the excess ionic concentration by DPX was counterbalanced by adjusting the buffer concentration. The kinetics of the leakage mediated by IAPP yielded a single exponential profile with a leakage rate of 7.3±1.1×10^−3 s^−1 (FIG. 5A).
The kinetics of liposome leakage induced by IAPP was monitored on QuantaMaster C-61 fluorescence spectrometer (Photon Technology International, Edison, N.J.) at 25° C. […] The stock solution of IAPP used in the measurements was kept in water at a concentration of 1 mM. The stock solution of water soluble quencher, DPX (p-xylene-bis-pyridinium bromide) was prepared in buffer (100 mM KCl, 50 mM NaPi, pH 7.4) at a concentration of 100 mM. The small molecules used in the leakage assay were dissolved in DMSO with a concentration range of 10-20 mM. The final concentration of dye encapsulating liposome, DPX, human IAPP, and small molecules were 200, 6000, 4, and 4 μM respectively. The final buffer concentration was corrected using higher concentration of buffer to keep the osmolality balanced. […] To determine the leakage rate constant, first the fluorescence was normalized and corrected by subtracting it from normalized fluorescence of control reaction. The corrected fluorescence was fit using equation given below (using Origin 9.1). All the experiments were performed in triplicate and the error values presented are standard deviations. a*exp(−b*x)+c (2) a=amplitude from 100% unleaked to 0% leaked c=final fraction of unleaked liposome y=change in fluorescence b=leakage rate constant

[2] = system: IAPP mediated cytotoxicity in Rat insulinoma cells (RIN-m); assay: Cell viability (CellTiter Blue), IAPP-mediated cytotoxicity; format: cell-based; settings: 6 μM IAPP, 48 h, IAPP alone ~68%
Protocol: as §1, §2, §3

Compound: CCOC(=O)c1cc(NC(=O)c2cc(NC(=O)c3cc([N+](=O)[O-])cn3CC(C)C)cn2CC(C)C)cn1CCC(=O)O [ADH-101]
- toxicity to the cells (RIN-m cells): not toxic
- leakage rate slower than the control reaction (IAPP only) ([1]; 4 μM IAPP, 4 μM compound, 200 μM liposome): ~3.5 times
- effect on the integrity of the liposomes ([1]; ADH-101 alone, 4 μM, no IAPP): did not have any effect
- cell viability ([2]; ratio 1:1 (IAPP:ADH-101)): 100%
- cell viability ([2]; ratio 1:2 (IAPP:ADH-101)): 100%

— patent publication US11124479B2, “Oligopyrroles as antagonists of islet amyloid polypeptide oligomerization” (New York University, priority 2017, dated 2021)
